Consider 14 compounds from patent US20180057505A1, “BICYCLIC HETEROARYL COMPOUNDS USEFUL AS INHIBITORS OF THE PAR-2 SIGNALING PATHWAY” (VERTEX PHARMACEUTICALS INCORPORATED, priority 2015, published 2018).

Common to all, as to type: cell-based
In assay [1] the test system is Thrombin-stimulated Ca2+ response in HT-29 cells. Put plainly: Ca FLIPR TETRA assay, ANTAGONIST mode, activator 1 U/mL Thrombin. Particulars: HT-29 cells, activator 1 U/mL Thrombin. Put shortly:
(§1)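 Antagonist-mode FLIPR Tetra Ca2+ read: dye-loaded HT-29 cells preincubated 30 min at r.t. with compound (first read checks agonism alone), then challenged with final 3.1 U/mL trypsin, 8 μM SLIGKV, 1 U/mL thrombin or 0.6 μM UTP. Cells plated overnight in 1% FBS McCoy's; Calcium 5 loading 45 min 37 °C plus 15 min r.t.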

Assay [2] has as its target T1, PAR2 (HT-29 cells) (Homo sapiens, UniProt P55085).
T1 construct: host or cells: HT-29
T1 sequence (P55085 26-397): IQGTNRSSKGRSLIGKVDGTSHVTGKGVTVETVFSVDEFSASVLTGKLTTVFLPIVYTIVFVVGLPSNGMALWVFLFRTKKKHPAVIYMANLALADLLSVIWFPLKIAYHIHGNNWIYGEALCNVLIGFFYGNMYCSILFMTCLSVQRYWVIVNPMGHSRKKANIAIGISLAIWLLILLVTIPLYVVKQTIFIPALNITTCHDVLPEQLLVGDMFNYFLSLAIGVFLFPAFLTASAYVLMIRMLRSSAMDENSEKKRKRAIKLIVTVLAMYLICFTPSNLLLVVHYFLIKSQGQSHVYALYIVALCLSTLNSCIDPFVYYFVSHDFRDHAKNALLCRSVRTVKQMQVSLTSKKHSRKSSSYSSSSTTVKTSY
The assay can be described thus: Ca FLIPR TETRA assay, ANTAGONIST mode, activator 8 μM SLIGKV. To be noted: HT-29 cells, activator 8 μM SLIGKV; maximal antagonist concentration per Method (A: 0.1, 1 or 2 μM; B: 50 μM). Put shortly: as §1

Assay [3] relates to UTP-stimulated Ca2+ response in HT-29 cells. Put plainly: Ca FLIPR TETRA assay, ANTAGONIST mode, activator 0.6 μM UTP. Particulars: for inhibition at 50 µM: HT-29; for IC50: HT-29 cells, activator 0.6 μM UTP. The method, boiled down:
as §1

In assay [4] the target is T1, PAR2 (HT-29 cells). Put plainly: Ca FLIPR TETRA assay, ANTAGONIST mode, activator 3.1 U/mL trypsin. Particulars: for Trypsin, % @ 50: @ 50 (μM); for IC50: HT-29 cells, activator 3.1 U/mL trypsin, maximal antagonist concentration per Method (A: 0.1, 1 or 2 μM; B: 50 μM). The method, boiled down: as §1

One may read the IC50 as the concentration that inhibits the measured activity by half. Usually inhibition stands for the percentage by which the read-out fell short of the control.

Regarding `CC(C)c1cc(-c2ccc(F)cc2)nc2cc(C(=O)N3CCN(C(=O)C4CCCC4)[C@@H](C)C3)oc12` [Example I-81], the IC50 in assay [1] (Homo sapiens) was greater than 50 µM; in assay [2] it was 0.022 µM. Also, the inhibition at 50 µM in assay [3] (Homo sapiens) turned out to be 46%. In addition, the “Trypsin, % @ 50” value in assay [4] came to 66% @ 50.
Regarding `CCC(CC)C(=O)N1CCN(C(=O)c2cc3nc(-c4ccc(F)cc4)cc(C(C)C)c3o2)C[C@@H]1C` [Example I-82], the values for the 50% inhibitory concentration (IC50) in assay [1] (Homo sapiens), in assay [2] and in assay [3] (Homo sapiens) were greater than 50 µM, 0.18 µM and 47 µM, respectively. Also, the “Trypsin, % @ 50” value in assay [4] is given as 70% @ 50.
For `CC(C)c1cc(-c2ccc(F)cc2)nc2cc(C(=O)N3CCN(C(=O)C(O)c4ccc(F)cc4)[C@@H](C)C3)oc12` (some centres unmarked) [Example I-83], the IC50 in assay [1] (Homo sapiens) came to 11 µM; in assay [2], 0.0045 µM; in assay [3] (Homo sapiens) it was 29 µM; in assay [4], 0.0078 µM.
For `CO[C@@H](C(=O)N1CCN(C(=O)c2cc3nc(-c4ccc(F)cc4)cc(C(C)C)c3o2)C[C@@H]1C)c1ccccc1` [Example I-84], in that order: 50 µM, 0.0063 µM, greater than 25 µM and 0.029 µM.
For `CC(Oc1ccccc1)C(=O)N1CCN(C(=O)c2cc3nc(-c4ccc(F)cc4)cc(C(C)C)c3o2)C[C@@H]1C` (some centres unmarked) [Example I-85], in that order: greater than 50 µM, 0.03 µM, greater than 50 µM and 0.25 µM.
As for `CC(C)c1cc(-c2ccc(F)cc2)nc2cc(C(=O)N3CCN(C(=O)c4ccno4)[C@@H](C)C3)oc12` [Example I-86], the concentration for half-maximal inhibition (IC50) was greater than 50 µM in assay [1] (Homo sapiens), 0.39 µM in assay [2] and 0.53 µM in assay [4]. Further, in assay [3] (Homo sapiens), the inhibition at 50 µM amounted to 60%.
Turning to `CC(C)c1cc(-c2ccc(F)cc2)nc2cc(C(=O)N3CCN(C(=O)C(C)(C)O)[C@@H](C)C3)oc12` [Example I-87], the concentration for half-maximal inhibition (IC50) in assay [1] (Homo sapiens) stood at 19 µM; in assay [2], 3.7 µM; in assay [3] (Homo sapiens), 16 µM; in assay [4], 3.8 µM.
For `CC(C)c1cc(-c2ccc(F)cc2)nc2cc(C(=O)N3CCN(C(=O)C4CCCCO4)[C@@H](C)C3)oc12` (some centres unmarked) [Example I-88], in that order: 17 µM, 0.16 µM, 17 µM and 0.34 µM.
Take `CC(C)c1cc(-c2ccc(F)cc2)nc2cc(C(=O)N3CCN(C(=O)C4(O)CCC4)[C@@H](C)C3)oc12` [Example I-89]: the IC50 in assay [1] (Homo sapiens) came to 13 µM; in assay [2] it was 1 µM; in assay [3] (Homo sapiens) it was 11 µM; in assay [4], 1.1 µM.
For `CC(C)c1cc(-c2ccc(F)cc2)nc2cc(C(=O)N3CCN(C(=O)[C@H](O)CC(C)(C)C)[C@@H](C)C3)oc12` [Example I-90], in that order: greater than 50 µM, 0.0026 µM, 42 µM and 0.0072 µM.
For `CC(C)c1cc(-c2ccc(F)cc2)nc2cc(C(=O)N3CCN(C(=O)C4(O)CCOCC4)[C@@H](C)C3)oc12` [Example I-91], in that order: 9.4 µM, 3.3 µM, 11 µM and 3.8 µM.
Turning to `CC(C)c1cc(-c2ccc(F)cc2)nc2cc(C(=O)N3CCN(C(=O)C4(O)CCC4)CC3)oc12` [Example I-92], the IC50 in assay [1] was 7.9 µM; in assay [2], 4.7 µM; in assay [3], 7.4 µM; in assay [4], 6.2 µM.
`CC(C)c1cc(-c2ccc(F)cc2)nc2cc(C(=O)N3CCN(C(=O)[C@@H](C)O)CC3)oc12` [Example I-93]: the IC50 in assay [1] (Homo sapiens) was determined as 25 µM; in assay [2], 18 µM; in assay [3] (Homo sapiens), 29 µM; in assay [4], 16 µM.
As for `CC(C)c1cc(-c2ccc(F)cc2)nc2cc(C(=O)N3CCN(C(=O)[C@H](O)CC(C)(C)C)CC3)oc12` [Example I-94], the IC50 is 6.7 µM in assay [1] (Homo sapiens), 1.2 µM in assay [2] and 0.62 µM in assay [4]. Further, in assay [3] (Homo sapiens), the inhibition at 50 µM was 74%.
